Data taken from PMC9456008, “Enantiocontrolled Preparation of ϒ-Substituted Cyclohexenones: Synthesis and Kinase Activity Assays of Cyclopropyl-Fused Cyclohexane Nucleosides” (International Journal of Molecular Sciences, 2022).
“Also recorded” adds a separate entry of the source.

How the values were obtained:
Human TK-1 = target: T1, Human TK-1 (Homo sapiens, UniProt P04183); assay: Thymidine kinase assay using [CH3-3H]dThd as natural substrate, TK-1; type: biochemical; settings: for IC50: 50% inhibitory concentration for TK-catalyzed conversion of [3H]dThd to its 5'-monophosphate, 1 µM dThd, 37 °C, 30 min
T1 sequence (P04183 1-234): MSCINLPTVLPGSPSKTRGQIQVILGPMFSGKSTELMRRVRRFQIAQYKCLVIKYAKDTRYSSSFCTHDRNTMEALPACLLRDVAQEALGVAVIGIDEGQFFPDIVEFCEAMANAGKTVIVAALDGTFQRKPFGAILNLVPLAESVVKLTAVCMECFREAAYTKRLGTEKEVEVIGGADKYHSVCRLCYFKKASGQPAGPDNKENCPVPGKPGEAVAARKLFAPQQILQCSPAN
Protocol: (§1) Thymidine Kinase Assay Using [CH3-^3H]dThd as the Natural Substrate. The activity of recombinant thymidine kinase 1 (TK-1), TK-2, and herpes simplex virus-1 (HSV-1) TK, and the 50% inhibitory concentration of the test compounds, were assayed in a 50-μL reaction mixture containing 50 mM Tris/HCl, pH 8.0, 2.5 mM MgCl2, 10 mM dithiothreitol, 0.5 mM CHAPS, 3 mg/mL bovine serum albumin, 2.5 mM ATP, 1 µM [methyl-^3H]dThd, and enzyme. The samples were incubated at 37 °C for 30 min in the presence or absence of different concentrations (five-fold dilutions) of the test compounds. At this time, the enzyme reaction still proceeded linearly. Aliquots of 45 µL of the reaction mixtures were spotted on Whatman DE-81 filter paper disks (Whatman, Clifton, NJ, USA). The filters were washed three times for 5 min each in 1 mM ammonium formate, once for 1 min in water, and once for 5 min in ethanol. The radioactivity was determined by scintillation counting.

Human TK-2 = target: T2, Human TK-2 (Homo sapiens, UniProt O00142); assay: Thymidine kinase assay using [CH3-3H]dThd as natural substrate, TK-2; type: biochemical; settings: for IC50: 50% inhibitory concentration for TK-catalyzed conversion of [3H]dThd to its 5'-monophosphate, 1 µM dThd, 37 °C, 30 min
T2 sequence (O00142 34-265): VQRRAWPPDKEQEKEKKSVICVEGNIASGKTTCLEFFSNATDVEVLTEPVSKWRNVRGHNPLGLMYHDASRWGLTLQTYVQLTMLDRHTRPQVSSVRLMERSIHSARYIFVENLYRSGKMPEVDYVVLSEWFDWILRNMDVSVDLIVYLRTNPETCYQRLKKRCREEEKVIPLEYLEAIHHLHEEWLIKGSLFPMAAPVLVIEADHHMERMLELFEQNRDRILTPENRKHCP
Protocol: as §1

HSV-1 TK [1] = target: T3, HSV-1 TK (Human herpesvirus 1, UniProt P0DTH5); assay: Thymidine kinase assay using [CH3-3H]dThd as natural substrate, HSV-1 TK; type: biochemical
Protocol: as §1

[2] = system: human embryonic lung (HEL) fibroblasts; assay: Cytotoxicity in HEL cell cultures (alteration of cell morphology); settings: microscopically detectable alteration of normal cell morphology
HSV-1 TK [3] = target: T3, HSV-1 TK; assay: Substrate activity for HSV-1 TK by HPLC technology; type: biochemical, herpes simplex virus-1
Text: Therefore, to evaluate this last point, we performed further studies to test the suitability of these compounds to pass the usual rate-limiting first phosphorylation step. Thus, the affinity of the synthesized compounds 2a–e for the cellular and HSV-1 thymidine kinases (TKs) were investigated (Table 2). […] It was expected that this cytosine analogue might show affinity for HSV-1 TK, as the natural nucleoside (2-deoxycytidine, 2-dC) is known to be recognized by several kinases, including HSV-1 TK; however, that was apparently not the case. […] Therefore, because some of the synthesized analogues were recognized by the virus-encoded nucleoside kinase, the lack of antiherpetic activity could be attributed to the lack of further conversion of the 5′-monophosphate derivative to the 5′-triphosphate or to a low affinity, if any, of the 5′-triphosphate metabolite to the virus-encoded DNA polymerase.

T3 sequence (P0DTH5 whole entry): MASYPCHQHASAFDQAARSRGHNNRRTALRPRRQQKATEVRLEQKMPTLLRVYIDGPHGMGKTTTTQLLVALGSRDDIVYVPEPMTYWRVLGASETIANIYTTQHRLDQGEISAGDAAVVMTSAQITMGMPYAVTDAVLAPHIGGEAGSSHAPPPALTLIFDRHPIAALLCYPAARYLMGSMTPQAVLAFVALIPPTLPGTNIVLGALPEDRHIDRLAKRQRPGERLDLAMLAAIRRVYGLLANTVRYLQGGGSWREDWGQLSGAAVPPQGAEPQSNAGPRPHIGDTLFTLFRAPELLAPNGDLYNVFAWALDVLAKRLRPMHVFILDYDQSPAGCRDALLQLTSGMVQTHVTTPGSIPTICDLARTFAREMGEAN

Compound	IC50 (Human TK-1)	IC50 (Human TK-2)	IC50 (HSV-1 TK [1])	Affinity for HSV-1 TK (in words) (HSV-1 TK [1])	Cytotoxicity, minimum cytotoxic concentration [2]	Affinity for human TK-1 / human cellular kinases (in words) (Human TK-1)	Affinity for mitochondrial TK-2 (in words) (Human TK-2)	Substrate activity for HSV-1 TK, conversion to the monophosphate metabolite (HSV-1 TK [3])
O=c1ccn([C@H]2CC[C@@H](CO)[C@@H]3C[C@@H]32)c(=O)[nH]1 [Compound 2c]	> 846 µM	> 846 µM	> 846 µM	–	–	–	–	–
Nc1ncnc2c1ncn2[C@H]1CC[C@@H](CO)[C@@H]2C[C@@H]21 [Compound 2a]	> 771 µM	> 771 µM	578 µM	–	–	–	–	–
Nc1ccn(C2CCC(CO)C3CC32)c(=O)n1 (stereo not drawn) [Compound 2e, 4-Amino-1-[(1′S,2′S,5′R,6′R)-5′-(hydroxymethyl)bicyclo [4.1.0]hept-2′-yl]pyrimidin-2(1H)-one]	> 425 µM	> 425 µM	> 425 µM	did not display affinity	> 100 µM	–	–	–
Nc1nc2c(ncn2[C@H]2CC[C@@H](CO)[C@@H]3C[C@@H]32)c(=O)[nH]1 [Compound 2b]	> 726 µM	338 µM	5.81 µM	excellent affinity; also recorded: display affinity	–	not for human TK-1	some marginal affinity	good substrate
O=c1[nH]c(=O)n([C@H]2C[C@H](O)[C@@H](CO)O2)cc1/C=C/Br [Brivudin]	–	–	–	–	> 250 µM	–	–	–
Nc1nc(O)c2ncn(COC(CO)CO)c2n1 [Ganciclovir]	–	–	–	–	> 100 µM	–	–	–
Nc1ccn(C[C@@H](CO)OCP(=O)(O)O)c(=O)n1 [Cidofovir]	–	–	–	–	> 250 µM	–	–	–
Nc1nc2c(ncn2COCCO)c(=O)[nH]1 [Acyclovir]	–	–	–	–	> 250 µM	–	–	–
Cc1cn([C@H]2CC[C@@H](CO)[C@@H]3C[C@@H]32)c(=O)[nH]c1=O [Compound 2d]	> 799 µM	> 799 µM	208 µM	display affinity	–	not for human TK-1	–	–
